These compounds were tested on ATF4 luciferase reporter (human full-length ATF4 5'-UTR fused to firefly luciferase) in HEK293T cells (assay: ATF4-Luc assay (in vitro model of VWMD): HEK293T cells carrying ATF4 luciferase reporter, tunicamycin-treated). Conditions: Homo sapiens, HEK-293T, 1 μg/mL tunicamycin, 7 hours, One Glo luminescence.
Type: cell-based
Method in brief: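 Compound at 200 nM and tunicamycin at 1 μg/mL were given together for 7 h to HEK293T cells stably transduced with an ATF4 5′-UTR-driven firefly luciferase reporter. Read-out by luminescence, reported as EC50.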

First: O=C(COc1ccc(Cl)c(F)c1)NC12CCC(NC(=O)C3CC(=O)c4cc(Cl)ccc4O3)(CC1)CC2 (stereo not drawn) [Compound 326, 6-chloro-N-{4-[2-(4-chloro-3-fluorophenoxy)acetamido]bicyclo[2.2.2]octan-1-yl}-4-oxo-3,4-dihydro-2H-1-benzopyran-2-carboxamide]
Second: O=C(COc1ccc(Cl)c(F)c1)NC12CCC(NC(=O)C3CC(O)c4cc(Cl)ccc4O3)(CC1)CC2 (stereo not drawn) [Compound 337, 6-chloro-N-{4-[2-(4-chloro-3-fluorophenoxy)acetamido]bicyclo[2.2.2]octan-1-yl}-4-hydroxy-3,4-dihydro-2H-1-benzopyran-2-carboxamide]
The EC50 of the first is higher: 10 to 50 nM for the first, under 10 nM for the second. The second is the more potent here.

First: O=C(COc1ccc(Cl)c(F)c1)NC12CC(NC(=O)[C@H]3C[C@H](NCC(F)(F)F)c4cc(Cl)ccc4O3)(C1)C2 [Compound 327, (2R,4S)-6-chloro-N-{3-[2-(4-chloro-3-fluorophenoxy)acetamido]bicyclo[1.1.1]pentan-1-yl}-4-[(2,2,2-trifluoroethyl)amino]-3,4-dihydro-2H-1-benzopyran-2-carboxamide]
Second: O=C(COc1ccc(Cl)c(F)c1)NC12CC(NC(=O)C3CC(NCC(F)(F)F)c4cc(Cl)ccc4O3)(C1)C2 (stereo not drawn) [Compound 336, 6-chloro-N-{3-[2-(4-chloro-3-fluorophenoxy)acetamido]bicyclo[1.1.1]pentan-1-yl}-4-[(2,2,2-trifluoroethyl)amino]-3,4-dihydro-2H-1-benzopyran-2-carboxamide]
The EC50 of the first is lower: 50 to 250 nM for the first, 250 to 500 nM for the second.

First: O=C(COc1ccc(Cl)c(F)c1)NC12CC(NC(=O)[C@H]3C[C@@H](N[C@H]4C[C@@H](O)C4)c4cc(Cl)ccc4O3)(C1)C2 [Compound 328, (2R,4R)-6-chloro-N-{3-[2-(4-chloro-3-fluorophenoxy)acetamido]bicyclo[1.1.1]pentan-1-yl}-4-{[(1s,3S)-3-hydroxycyclobutyl]amino}-3,4-dihydro-2H-1-benzopyran-2-carboxamide]
Second: O=C(COc1ccc(Cl)c(F)c1)NC12CC(NC(=O)C3CC(NC4COC4)c4cc(Cl)ccc4O3)(C1)C2 (stereo not drawn) [Compound 349, 6-chloro-N-{3-[2-(4-chloro-3-fluorophenoxy)acetamido]bicyclo[1.1.1]pentan-1-yl}-4-[(oxetan-3-yl)amino]-3,4-dihydro-2H-1-benzopyran-2-carboxamide]
The EC50 of the first is higher: 50 to 250 nM for the first, 10 to 50 nM for the second.

`O=C(COc1cnc(C(F)(F)F)nc1)NC12CC(NC(=O)[C@H]3CC(=O)c4cc(Cl)ccc4O3)(C1)C2` [Compound 329, (2R)-6-chloro-4-oxo-N-[3-(2-{[2-(trifluoromethyl)pyrimidin-5-yl]oxy}acetamido)bicyclo[1.1.1]pentan-1-yl]-3,4-dihydro-2H-1-benzopyran-2-carboxamide] and `O=C(COc1ccc(C(F)(F)F)nc1)NC12CC(NC(=O)[C@@H]3CC(=O)c4cc(Cl)ccc4O3)(C1)C2` [Compound 335, (2S)-6-chloro-4-oxo-N-[3-(2-{[6-(trifluoromethyl)pyridin-3-yl]oxy}acetamido)bicyclo[1.1.1]pentan-1-yl]-3,4-dihydro-2H-1-benzopyran-2-carboxamide] fall in the same range of EC50: 50 to 250 nM for the first, 50 to 250 nM for the second.

First: COC1CC(C(=O)NC23CC(NC(=O)COc4ccc(Cl)c(F)c4)(C2)C3)Oc2ccc(F)cc21 (stereo not drawn) [Compound 330, N-{3-[2-(4-chloro-3-fluorophenoxy)acetamido]bicyclo[1.1.1]pentan-1-yl}-6-fluoro-4-methoxy-3,4-dihydro-2H-1-benzopyran-2-carboxamide]
Second: O=C(COc1ccc(Cl)c(F)c1)NC12CC(NC(=O)C3CC(=O)c4cc(F)ccc4O3)(C1)C2 (stereo not drawn) [Compound 332, N-{3-[2-(4-chloro-3-fluorophenoxy)acetamido]bicyclo[1.1.1]pentan-1-yl}-6-fluoro-4-oxo-3,4-dihydro-2H-1-benzopyran-2-carboxamide]
The EC50 of the first is higher: 50 to 250 nM for the first, under 10 nM for the second. The second is the more potent here.

First: O=C(COc1ccc(Cl)cn1)NC12CC(NC(=O)[C@H]3CC(=O)c4cc(Cl)ccc4O3)(C1)C2 [Compound 331, (2R)-6-chloro-N-(3-{2-[(5-chloropyridin-2-yl)oxy]acetamido}bicyclo[1.1.1]pentan-1-yl)-4-oxo-3,4-dihydro-2H-1-benzopyran-2-carboxamide]
Second: COc1ncc(OCC(=O)NC23CC(NC(=O)[C@H]4CC(=O)c5cc(Cl)ccc5O4)(C2)C3)cn1 [Compound 333, (2R)-6-chloro-N-(3-{2-[(2-methoxypyrimidin-5-yl)oxy]acetamido}bicyclo[1.1.1]pentan-1-yl)-4-oxo-3,4-dihydro-2H-1-benzopyran-2-carboxamide]
The EC50 of the first is lower: 50 to 250 nM for the first, 250 to 500 nM for the second.

Compared with `O=C(COc1ccc(Cl)c(F)c1)NC12CC(NC(=O)C3CC(NC4(CO)CC4)c4cc(Cl)ccc4O3)(C1)C2` (stereo not drawn) [Compound 339, 6-chloro-N-{3-[2-(4-chloro-3-fluorophenoxy)acetamido]bicyclo[1.1.1]pentan-1-yl}-4-{[1-(hydroxymethyl)cyclopropyl]amino}-3,4-dihydro-2H-1-benzopyran-2-carboxamide], `CC(C)(O)CN1C[C@@H](C(=O)NC23CC(NC(=O)COc4ccc(Cl)c(F)c4)(C2)C3)Oc2ccc(Cl)cc21` [Compound 348, (2S)-6-chloro-N-{3-[2-(4-chloro-3-fluorophenoxy)acetamido]bicyclo[1.1.1]pentan-1-yl}-4-(2-hydroxy-2-methylpropyl)-3,4-dihydro-2H-1,4-benzoxazine-2-carboxamide] is higher in EC50: 10 to 50 nM for the first, 50 to 250 nM for the second.

First: Cc1ccc2oc(C(=O)NC34CC(NC(=O)COc5ccc(Cl)c(F)c5)(C3)C4)cc(=O)c2c1 [Compound 341, N-{3-[2-(4-chloro-3-fluorophenoxy)acetamido]bicyclo[1.1.1]pentan-1-yl}-6-methyl-4-oxo-4H-1-benzopyran-2-carboxamide]
Second: O=C(COc1ccc(Cl)c(F)c1)NC12CC(NC(=O)c3cc(=O)c4cc(O)ccc4o3)(C1)C2 [Compound 346, N-{3-[2-(4-chloro-3-fluorophenoxy)acetamido]bicyclo[1.1.1]pentan-1-yl}-6-hydroxy-4-oxo-4H-1-benzopyran-2-carboxamide]
The EC50 of the first is lower: under 10 nM for the first, 500 to 2000 nM for the second. The first is the more potent here.

First: O=C(COc1ccc(Cl)c(Cl)c1)NC12CC(NC(=O)[C@@H]3CC(=O)c4cc(F)c(F)cc4O3)(C1)C2 [Compound 342, (2S)—N-{3-[2-(3,4-dichlorophenoxy)acetamido]bicyclo[1.1.1]pentan-1-yl}-6,7-difluoro-4-oxo-3,4-dihydro-2H-1-benzopyran-2-carboxamide]
Second: Cc1cc2c(cc1F)C(O)CC(C(=O)NC13CC(NC(=O)COc4ccc(Cl)c(F)c4)(C1)C3)O2 (stereo not drawn) [Compound 347, N-{3-[2-(4-chloro-3-fluorophenoxy)acetamido]bicyclo[1.1.1]pentan-1-yl}-6-fluoro-4-hydroxy-7-methyl-3,4-dihydro-2H-1-benzopyran-2-carboxamide]
The EC50 of the first is higher: 10 to 50 nM for the first, under 10 nM for the second.

`Cc1csc(C(=O)NC23CCC(NC(=O)[C@H]4C[C@@H](O)c5cc(Cl)ccc5O4)(CC2)[C@@H](O)C3)n1` [Compound 344, N-[(3S)-4-{[(2R,4R)-6-chloro-4-hydroxy-3,4-dihydro-2H-1-benzopyran-2-carbonyl]amino}-3-hydroxybicyclo[2.2.2]octan-1-yl]-4-methyl-1,3-thiazole-2-carboxamide] and `Cc1csc(C(=O)NC23CCC(NC(=O)[C@H]4C[C@@H](O)c5cc(Cl)ccc5O4)(CC2)C[C@@H]3O)n1` [Compound 356, N-[(2S)-4-{[(2R,4R)-6-chloro-4-hydroxy-3,4-dihydro-2H-1-benzopyran-2-carbonyl]amino}-2-hydroxybicyclo[2.2.2]octan-1-yl]-4-methyl-1,3-thiazole-2-carboxamide] fall in the same range of EC50: 50 to 250 nM for the first, 50 to 250 nM for the second.

Compared with `O=C(COc1ccc(Cl)c(F)c1)NC12CC(NC(=O)C3COc4cc(Cl)ccc4C3)(C1)C2` (stereo not drawn) [Compound 345, 7-chloro-N-{3-[2-(4-chloro-3-fluorophenoxy)acetamido]bicyclo[1.1.1]pentan-1-yl}-3,4-dihydro-2H-1-benzopyran-3-carboxamide], `O=C(COc1ccc(Cl)c(F)c1)NC12CC(NC(=O)C3(F)CC(O)c4cc(Cl)ccc4O3)(C1)C2` (stereo not drawn) [Compound 350, 6-chloro-N-{3-[2-(4-chloro-3-fluorophenoxy)acetamido]bicyclo[1.1.1]pentan-1-yl}-2-fluoro-4-hydroxy-3,4-dihydro-2H-1-benzopyran-2-carboxamide] is lower in EC50: over 2000 nM for the first, under 10 nM for the second.

`O=C(COc1cc(F)c2cn[nH]c2c1)NC12CC(NC(=O)[C@H]3C[C@@H](O)c4cc(Cl)ccc4O3)(C1)C2` [Compound 351, (2R,4R)-6-chloro-N-(3-{2-[(4-fluoro-1H-indazol-6-yl)oxy]acetamido}bicyclo[1.1.1]pentan-1-yl)-4-hydroxy-3,4-dihydro-2H-1-benzopyran-2-carboxamide] and `O=C(COc1cc(F)c2cn[nH]c2c1)NC12CCC(NC(=O)[C@H]3C[C@@H](O)c4cc(Cl)ccc4O3)(CC1)[C@@H](O)C2` [Compound 355, (2R,4R)-6-chloro-N-[(2S)-4-{2-[(4-fluoro-1H-indazol-6-yl)oxy]acetamido}-2-hydroxybicyclo[2.2.2]octan-1-yl]-4-hydroxy-3,4-dihydro-2H-1-benzopyran-2-carboxamide] cannot be ordered by EC50: under 10 nM for the first, under 10 nM for the second.

First: O=C(NC12CCC(NC(=O)[C@H]3CC(=O)c4cc(Cl)ccc4O3)(CC1)C[C@@H]2O)c1cnc(C(F)F)cn1 [Compound 352, N-[(2S)-4-{[(2R)-6-chloro-4-oxo-3,4-dihydro-2H-1-benzopyran-2-carbonyl]amino}-2-hydroxybicyclo[2.2.2]octan-1-yl]-5-(difluoromethyl)pyrazine-2-carboxamide]
Second: O=C(NC12CCC(NC(=O)[C@H]3C[C@@H](O)c4cc(Cl)ccc4O3)(CC1)C[C@@H]2O)c1cnc(C(F)F)cn1 [Compound 353, N-[(2S)-4-{[(2R,4R)-6-chloro-4-hydroxy-3,4-dihydro-2H-1-benzopyran-2-carbonyl]amino}-2-hydroxybicyclo[2.2.2]octan-1-yl]-5-(difluoromethyl)pyrazine-2-carboxamide]
The EC50 of the first is higher: 500 to 2000 nM for the first, 50 to 250 nM for the second.

`O=C(NC12CCC(NC(=O)[C@H]3CC(=O)c4cc(Cl)ccc4O3)(CC1)CC2)c1ccc(OC(F)(F)F)cn1` [Compound 357, N-(4-{[(2R)-6-chloro-4-oxo-3,4-dihydro-2H-1-benzopyran-2-carbonyl]amino}bicyclo[2.2.2]octan-1-yl)-5-(trifluoromethoxy)pyridine-2-carboxamide] gave an EC50 of 500 to 2000 nM.

— patent US20240018133A1, “MODULATORS OF THE INTEGRATED STRESS PATHWAY” (Calico Life Sciences LLC, priority 2019, published 2024)
